{
  "source": "patent US20100197584A1",
  "about": "“USE OF CURCUMIN TO BLOCK BRAIN TUMOR FORMATION IN MICE” (Research Foundations of the City University of- New York, priority 2007, published 2010)",
  "test_system": "normal (non-tumor) brain cells",
  "experiment": "Normal brain cell viability (MTT on brain sections)",
  "format": "in vivo",
  "conditions": "brain sections of untreated mice treated with 1 mM in PBS for one hour; positive control for cell death (FIG. 10)",
  "description": "In each experiment, three mice were injected with 200 μl of PBS containing 3% DMSO, and three mice were injected with 200 μl of 667 μM curcumin (as described earlier) through the tail vein on three consecutive days by the method described above. On the fourth day, the mice were perfused with PBS through the heart, and the brains sectioned into 400-μm sections. Similar brain sections were also made from untreated mice which were then treated with 1 mM H2O2 in PBS for one hour, followed by incubation in H2O2-free DTM for three hours. These samples were used as a positive control for cell death.\nThe sections from each mouse were placed in 400 μl PBS in one well of a 48-well plate (i.e. three wells for three mice) and then treated with 200 μl of MTT (5 mg/ml) per well with gentle mixing at 37° C. for about 2 hours. Subsequently, 800 μl of the lysis buffer was added to each well, and the plate was sealed and incubated overnight at 37° C. with gentle mixing. Three 100-μl portions of the tissue solution obtained were next transferred to three respective wells of a 96-well plate (i.e. three wells per mouse and nine wells for three mice in one group) and absorbance at 570 nm was measured using a 96-well multi scanner auto-reader. Results obtained were normalized to protein levels and then expressed as percent of carrier-treated samples.",
  "data": [
    {"smiles": "OO", "note": "[H2O2, reference compound]", "values": [
      {"measurement": "cell viability in brain slices (MTT activity)", "value": "dramatic decrease"}
    ]}
  ]
}
